Calls of active or inactive are those of the source. No cut-off for these calls is given here.

The species named for one experiment is Cavia porcellus. Put plainly: (§1) Antagonist activity at muscarinic M2 receptor in carbachol-stimulated guinea pig left atrium. In kind it is functional, tissue-based. As to conditions: Cardiac atrium.
Experiment [1] deals with Muscarinic acetylcholine receptor M3 (Homo sapiens, UniProt P20309). The experiment is described as follows: Displacement of [3H]N-methylscopolamine from human recombinant muscarinic M3 receptor expressed in CHO cells. The experiment is classed as cell-based.
Experiment [2] deals with T1, Muscarinic acetylcholine receptor M2 (Homo sapiens, UniProt P08172).
T1 sequence (P08172 whole entry): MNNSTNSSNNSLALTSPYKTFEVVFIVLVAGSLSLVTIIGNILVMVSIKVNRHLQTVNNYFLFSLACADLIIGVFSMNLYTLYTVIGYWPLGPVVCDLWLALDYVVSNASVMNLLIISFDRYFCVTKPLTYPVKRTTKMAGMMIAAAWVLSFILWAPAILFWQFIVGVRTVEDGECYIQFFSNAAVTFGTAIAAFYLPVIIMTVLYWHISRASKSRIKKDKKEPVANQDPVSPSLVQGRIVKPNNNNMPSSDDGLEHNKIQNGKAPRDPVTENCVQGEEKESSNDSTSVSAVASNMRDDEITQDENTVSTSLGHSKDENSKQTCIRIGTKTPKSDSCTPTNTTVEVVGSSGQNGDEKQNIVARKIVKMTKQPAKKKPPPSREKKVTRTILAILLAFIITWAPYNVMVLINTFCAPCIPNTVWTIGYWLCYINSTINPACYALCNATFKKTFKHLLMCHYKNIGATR
The experiment is described as follows: Displacement of [3H]N-methylscopolamine from human recombinant muscarinic M2 receptor expressed in CHO cells. In kind it is cell-based.

In experiment [3] the target is Muscarinic acetylcholine receptor M3 (Cavia porcellus, UniProt Q8VH26). The experiment is described as follows: Antagonist activity at muscarinic M3 receptor in carbachol-stimulated guinea pig trachea. The experiment is classed as functional. The conditions noted are these: read-out: pA2 (converted).
Experiment [4] in a line: as §1. The conditions noted are these: Cavia porcellus, Cardiac atrium; read-out: pA2 (converted). The experiment is classed as functional, tissue-based.
Experiment [5] concerns the target Muscarinic acetylcholine receptor M3 (Cavia porcellus) (UniProt Q8VH26). Put plainly: Reversible inhibition of muscarinic M3 receptor in electrically-stimulated guinea pig trachea assessed as recovery of maximal effect at >280 min. The experiment is classed as tissue-based. Also noted: scale not given: the % may be the effect or the level left.

Sequence of Muscarinic acetylcholine receptor M3 (Homo sapiens, UniProt P20309) (P20309 whole entry): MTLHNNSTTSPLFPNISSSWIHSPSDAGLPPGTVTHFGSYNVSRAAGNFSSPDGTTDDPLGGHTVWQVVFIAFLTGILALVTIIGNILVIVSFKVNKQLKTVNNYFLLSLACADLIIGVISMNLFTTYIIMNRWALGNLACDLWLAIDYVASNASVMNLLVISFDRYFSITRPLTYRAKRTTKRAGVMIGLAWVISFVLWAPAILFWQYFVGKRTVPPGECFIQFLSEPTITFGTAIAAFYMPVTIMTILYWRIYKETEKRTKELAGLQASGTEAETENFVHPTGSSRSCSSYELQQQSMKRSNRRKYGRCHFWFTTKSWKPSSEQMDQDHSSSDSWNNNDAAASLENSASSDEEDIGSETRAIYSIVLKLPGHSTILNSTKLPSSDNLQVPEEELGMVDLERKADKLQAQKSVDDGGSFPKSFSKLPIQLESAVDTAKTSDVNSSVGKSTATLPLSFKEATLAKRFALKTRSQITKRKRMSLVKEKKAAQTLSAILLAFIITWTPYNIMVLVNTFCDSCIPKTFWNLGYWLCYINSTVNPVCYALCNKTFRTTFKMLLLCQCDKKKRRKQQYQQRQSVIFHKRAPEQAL
Sequence of Muscarinic acetylcholine receptor M3 (Cavia porcellus, UniProt Q8VH26) (Q8VH26 whole entry): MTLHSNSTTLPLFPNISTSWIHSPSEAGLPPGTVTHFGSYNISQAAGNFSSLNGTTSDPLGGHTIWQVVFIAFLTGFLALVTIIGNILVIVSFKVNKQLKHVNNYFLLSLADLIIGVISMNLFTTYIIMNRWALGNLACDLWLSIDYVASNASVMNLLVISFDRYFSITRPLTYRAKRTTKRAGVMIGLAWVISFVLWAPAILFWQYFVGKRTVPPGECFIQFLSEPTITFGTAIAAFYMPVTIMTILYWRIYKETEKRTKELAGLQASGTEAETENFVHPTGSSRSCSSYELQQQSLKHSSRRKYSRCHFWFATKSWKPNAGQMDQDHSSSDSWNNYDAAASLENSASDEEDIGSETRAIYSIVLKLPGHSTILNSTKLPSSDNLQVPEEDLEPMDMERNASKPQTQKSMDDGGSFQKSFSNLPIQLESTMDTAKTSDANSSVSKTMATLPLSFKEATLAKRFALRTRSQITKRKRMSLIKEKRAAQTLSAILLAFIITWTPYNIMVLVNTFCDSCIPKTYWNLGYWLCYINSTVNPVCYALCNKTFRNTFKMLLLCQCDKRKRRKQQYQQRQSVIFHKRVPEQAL
Sequence of Muscarinic acetylcholine receptor M3 (Cavia porcellus) (Q8VH26 1-587): as the sequence (Q8VH26 whole entry) above

As for `C[N+]1(C)[C@@H]2C[C@@H](OC(=O)C(O)(c3cccs3)c3cccs3)C[C@H]1[C@@H]1O[C@@H]12`, the outcome in the experiment filed under Cavia porcellus was Active.
Regarding `CO[C@]1(C#C[C@@](O)(c2ccccc2)C2CCCCCC2)CN2CCC1CC2`, the Ki is 2 nM in experiment [1] and 20 nM in experiment [2]. Further, the result in the experiment filed under Cavia porcellus was Active.
Regarding `CO[C@]1(C#C[C@](O)(c2ccccc2)C2CCCCCCC2)CN2CCC1CC2`, the figures for the Ki in experiment [1] and in experiment [2] were 0.316 nM and 3.16 nM, respectively. Moreover, the results for the Kb in experiment [3] and in experiment [4] were 6.31 nM and 31.6 nM, respectively. The Activity in experiment [5] amounted to 20%.
With `COC1(C#CC(C#N)(c2ccccc2)c2ccccc2)CN2CCC1CC2` (stereo not given), the figures for the Ki in experiment [1] and in experiment [2] were 2.51 nM and 6.31 nM, respectively. Besides, the outcome in the experiment listed under Cavia porcellus was Active.
On the same counts, the results for `COC1(C#CC(C)(c2ccccc2)c2ccccc2)CN2CCC1CC2` (stereo not given) are 15.8 nM, 39.8 nM and “Active”.
With `CO[C@]1(C#CC(O)(c2ccccc2)c2ccccc2)CN2CCC1CC2`, in the experiment listed under Cavia porcellus, the outcome was Active.
The same measure, in the same setting: next, `CO[C@]1(C#C[C@@](O)(c2ccccc2)C2CCCCC2)CN2CCC1CC2`: “Active”; `CO[C@]1(C#C[C@](O)(c2ccccc2)C2CCCCC2)CN2CCC1CC2`: “Active”.
As to `CO[C@]1(C#C[C@](O)(c2ccccc2)C2CCCCCC2)CN2CCC1CC2`, the Ki in experiment [1] is 0.316 nM; in experiment [2], 2.51 nM. The Kb in experiment [3] is 6.31 nM; in experiment [4] it was 5.01 nM. Also, the Activity in experiment [5] came out at 20%.
Regarding `CO[C@]1(C#C[C@@](O)(c2ccccc2)C2CCCCCCC2)CN2CCC1CC2`, the results for the Ki in experiment [1] and in experiment [2] were 2.51 nM and 31.6 nM, respectively. Also, the outcome in the experiment listed under Cavia porcellus was Active.
Take `CC(C)[N+]1(C)C2CCC1CC(OC(=O)[C@H](CO)c1ccccc1)C2` (stereo not given in full): in the experiment filed under Cavia porcellus, the outcome was Active.
Consider `COC(C#C[C@@]1(OC)CN2CCC1CC2)(c1ccccc1)c1ccccc1`, for which the Ki in experiment [1] was 10 nM; in experiment [2], 158 nM. Also, the outcome in the experiment filed under Cavia porcellus was Active.

Values taken from ChEMBL document CHEMBL1144745, “Alkyne-quinuclidine derivatives as potent and selective muscarinic antagonists for the treatment of COPD” (Bioorg Med Chem Lett, 2008).
